Assay: Particle size of the compositions, tested initially, after 15 days and one month (stability studies)
Type: physicochemical
Conditions: Initial
Method: The particle size of the compositions of the invention were tested initially, after 15 days and one month. The compositions of the invention were then observed and tested for particle aggregation, settling, and flocculation on long term storage. The observations at one month, three months, 6 months, 9 months are as follows: […]

Particle size D10: 1 µm
Particle size D50: 3.3 µm
Particle size D90: 9.1 µm
SMILES: CCOC(=O)O[C@]1(C(=O)OCCl)CC[C@H]2[C@@H]3CCC4=CC(=O)C=C[C@]4(C)[C@H]3[C@@H](O)C[C@@]21C [API, Loteprednol etabonate]

Source: patent US20230364012A1, “STABLE OPHTHALMIC COMPOSITION OF LOTEPREDNOL” (MANKIND PHARMA LTD., priority 2022, published 2023)
